# Numbering of substitutions follows the chain as printed.
# How the values were obtained:
# [1] = biological target: T1, FXR-RXRm heterodimer (Rattus norvegicus, UniProt Q62735); assay: EcRE-TK-Luc transactivation in CV-1 cells cotransfected with FXR and RXRm; assay type: cell-based; settings: for FXR transactivating activity: Example 3, FIG. 3, FXR-RXRm, 100 nM unless otherwise indicated, AGN 10 10 μM; for transactivation activity, cells cotransfected with FXR and RXRm: Example 5, FIG. 6
# T1 construct: Full-length recombinant rat FXR and human RXR (or RXRm) cloned into the cloning site of plasmid pCMX; expressed in transfected cells; host or cells: CV-1 cells
# T1 sequence (Q62735 1-469): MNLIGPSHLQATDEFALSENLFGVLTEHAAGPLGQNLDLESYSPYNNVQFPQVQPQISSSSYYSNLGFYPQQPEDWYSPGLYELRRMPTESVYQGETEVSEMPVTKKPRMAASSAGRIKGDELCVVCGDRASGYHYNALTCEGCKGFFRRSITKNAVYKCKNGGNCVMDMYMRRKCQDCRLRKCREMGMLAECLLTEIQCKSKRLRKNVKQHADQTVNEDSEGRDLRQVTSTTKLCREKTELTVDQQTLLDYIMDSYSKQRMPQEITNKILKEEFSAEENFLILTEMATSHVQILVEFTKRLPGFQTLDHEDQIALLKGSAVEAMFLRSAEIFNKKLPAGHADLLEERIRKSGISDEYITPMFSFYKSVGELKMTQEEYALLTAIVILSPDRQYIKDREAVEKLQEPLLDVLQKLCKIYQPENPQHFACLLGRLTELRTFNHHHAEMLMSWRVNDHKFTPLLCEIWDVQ
# T1 sequence (P19793 1-462 D322P partner): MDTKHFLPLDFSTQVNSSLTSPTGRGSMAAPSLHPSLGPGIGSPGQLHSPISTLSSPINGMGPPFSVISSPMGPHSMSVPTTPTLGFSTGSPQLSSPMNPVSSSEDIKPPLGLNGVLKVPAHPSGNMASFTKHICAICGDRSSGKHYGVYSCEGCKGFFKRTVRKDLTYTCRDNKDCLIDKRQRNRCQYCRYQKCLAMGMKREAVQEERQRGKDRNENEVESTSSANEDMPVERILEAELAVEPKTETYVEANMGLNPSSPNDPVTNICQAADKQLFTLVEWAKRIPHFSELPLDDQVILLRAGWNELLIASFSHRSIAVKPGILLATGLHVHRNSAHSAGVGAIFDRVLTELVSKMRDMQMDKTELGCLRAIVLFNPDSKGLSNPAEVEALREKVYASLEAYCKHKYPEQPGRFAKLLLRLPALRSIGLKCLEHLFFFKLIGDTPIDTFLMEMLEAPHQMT
# From the text: Because FXR is known to bind to its response element as a heterodimer with RXR, and because the heterodimer can be activated by ligands to RXR, a mutant RXRα protein (RXRm; also referred to as D322P in the Figures) was constructed containing a single point mutation (Asp322 to Pro) in the ligand binding domain of RXR. The use of FXR-RXRm heterodimers, permits unambiguous identification of modulators of FXR activity amongst test compounds.
# (§1) Full-length recombinant rat FXR and human RXR (or RXRm) cloned into the cloning site of plasmid pCMX were cotransfected into CV-1 cells using the transient transfection method substantially as described above. Additionally, reporter plasmids were cotransfected with the expression plasmids as described above.
# (§2) Luciferase reporter plasmids TK-Luc (described in Heyman et al., Cell 68:397 (1992), hereby incorporated by reference herein) were constructed by placing the firefly luciferase cDNA coding sequence in frame immediately downstream from the herpes virus thymidine kinase promoter (located at nucleotide residues −105 to +51) of the thymidine kinase nucleotide sequence). Six repeats of the EcRE response element, to which the DNA binding domain (DBD) of FXR binds, was also included upstream of the reporter gene. Further details are provided above.
# (§3) AGN 10 has the structure: [drawing 3]
# (§4) The cells were then lysed as described above, and luciferase activity was measured as an indication of the extent of heterodimer-induced FXR transactivation activity as described above Results are shown in FIG. 2.
# CV-1 cells were cotransfected with mammalian expression vectors encoding full length FXR and RXRm, as well as with the luciferase reporter plasmid used in the last experiment. […] All compounds were dissolved in DMSO, except glycochenodeoxycholic acid, taurochenodeoxycholic acid, taurodeoxycholic acid and taurocholic acid, which were dissolved in phosphate buffered saline (PBS). Following exposure to the compounds, the cells were washed, lysed, and the luciferase activity measured as indicated above.
# (§5) These compounds were assayed for FXR modulating activity using the transactivation assay described above. All compounds were dissolved in DMSO. As above, the reporter plasmid contained 6 copies of the ecdysone response element (EcRE) placed along with the herpes virus thymidine kinase promoter upstream of the firefly luciferase gene. The reporter plasmid was transfected into CV-1 cells, either a) alone, b) with an expression plasmid encoding full length FXR, c) with an expression plasmid encoding full length RXRα, d) with two expression plasmids encoding full length FXR and RXRα respectively, and e) with two expression plasmids encoding full length FXR and RXRm, respectively. Plasmid constructions, transfection, incubation with test compounds, and luciferase activity assays were performed as described in Example 1.
# [2] = biological target: T2, FXR-RXRα heterodimer (UniProt P19793+Q62735); assay: EcRE-TK-Luc transactivation in CV-1 cells cotransfected with FXR and RXR; assay type: cell-based, rat; settings: for luciferase activity response, cells cotransfected with FXR and RXRα: Example 5, FIG. 6; for FXR activity as stated for panel compounds: Example 5 panel description, JH III 50 μM
# T2 construct: Full-length recombinant rat FXR and human RXR (or RXRm) cloned into the cloning site of plasmid pCMX; expressed in transfected cells; host or cells: CV-1 cells
# T2 sequence (Q62735 1-469): T1 sequence (Q62735 1-469)
# T2 sequence (P19793 1-462): T1 sequence (P19793 1-462 D322P partner) with P322D
# From the text: as §1, §2, §3, §4
# Transient cotransfection of full length rat FXR, human RXR and the luciferase reporter plasmid was performed as above. A set of cotransfectant CV-1 cells was incubated in 1, 2, 10, and 20 μM AGN 10. Separate sets of cotransformants were given 1, 10, 20, 100, and 200 μM of either CDCA, DCA or LCA. All compounds were dissolved in DMSO. All transformant cells were permitted to incubate for approximately 44 hours with the indicated compound, then the amount of transactivation activity was measured using the luciferase assay, as indicated above.
# as §5
# [3] = biological target: T3, FXR-RXRα complex (UniProt P19793+Q62735); settings: Forman et al., Cell 81:687-693 (1995); cited from earlier work
# T3 sequence (Q62735 1-469): T1 sequence (Q62735 1-469)
# T3 sequence (P19793 1-462): T1 sequence (P19793 1-462 D322P partner) with P322D
# [4] = tested on: FXR or RXR alone; settings: Forman et al., Cell 81:687-693 (1995); cited from earlier work
# [5] = Example 2, FIG. 2, ~44 hours, AGN 10 5-10 μM, LG 268 100 nM, bovine bile extract
compound,measurement,setting,value
"C[C@H](CCC(=O)O)[C@H]1CC[C@H]2[C@@H]3C(=O)C[C@@H]4CC(=O)CC[C@]4(C)[C@H]3CC[C@]12C [3-7-diketolithocholic acid, 3,7-diketolithocholic acid]",FXR transactivating activity,[1]; ~44 hours,measurable FXR transactivating activity
C[C@H](CCC(=O)O)[C@H]1CC[C@H]2[C@@H]3C(=O)C[C@@H]4C[C@H](O)CC[C@]4(C)[C@H]3CC[C@]12C [7-ketolithocholic acid],FXR transactivating activity,[1]; ~44 hours,measurable FXR transactivating activity
CC1(C)CCC(C)(C)c2cc(/C(=C/c3ccc(C(=O)C(=O)O)cc3)[Si](C)(C)C)ccc21 [AGN 10],"FXR-mediated transactivation (luciferase activity), FXR-RXR cotransfected cells",[2]; [5],almost as much activity
same,concentration at which FXR agonist activity is at a maximum,"[2]; Example 4, FIG. 4, rat FXR, human RXR, ~44 hours",10 µM
same,"luciferase activity response, cells cotransfected with FXR and RXRα",[2],highest activity response
same,"FXR-mediated transactivation (luciferase activity), FXR-RXRm cotransfected cells",[1]; [5],almost as much activity
same,FXR transactivating activity,[1]; ~44 hours,measurable FXR transactivating activity
same,"transactivation activity, cells cotransfected with FXR and RXRm",[1],significant levels of transctivation activity
same,FXR ligand classification from the data,"[1]; Example 5, conclusion",FXR agonists
CC1(C)CCC(C)(C)c2cc(C(=O)Nc3ccc(C(=O)O)cc3)ccc21 [Am 580],FXR activity as stated for panel compounds,[2],does not have FXR activity
C/C(=C\c1ccc(C(=O)O)cc1)c1ccc2c(c1)C(C)(C)CCC2(C)C [TTNPB],"luciferase activity response, cells cotransfected with FXR and RXRα",[2],highest activity response
same,FXR activity as stated for panel compounds,[2],has FXR activity
same,"transactivation activity, cells cotransfected with FXR and RXRm",[1],significant levels of transctivation activity
CC(C)CCC[C@@H](C)[C@H]1CC[C@H]2[C@@H]3CC=C4C[C@@H](O)CC[C@]4(C)[C@H]3CC[C@]12C [cholesterol],activation of the FXR-RXR complex,[3],did not activate
CC(C)=CCCC(C)=CCCC(C)=CC=O [farnesal],activation of the FXR-RXR complex,[3],somewhat less strongly
CC(C)=CCCC(C)=CCCC(C)=CC(=O)O [farnesoic acid],activation of the FXR-RXR complex,[3],somewhat less strongly
CC(C)=CCC/C(C)=C/CO [geraniol],activation of the FXR-RXR complex,[3],did not activate
CC(C)=CCC/C(C)=C/CC/C(C)=C/CC/C(C)=C/CO [geranylgeraniol],activation of the FXR-RXR complex,[3],somewhat less strongly
CC(C)=CCC/C(C)=C/CC/C(C)=C/CC/C=C(\C)CC/C=C(\C)CCC=C(C)C [squalene],activation of the FXR-RXR complex,[3],did not activate
juvenile hormone III,activation of the FXR-RXR complex,[3],activated
same,FXR activity as stated for panel compounds,[2],an FXR agonist
same,activation of FXR or RXR alone,[4],does not activate

# Reference: patent US6906057B1, “Methods for modulating FXR receptor activity” (Allergan, Inc., priority 1999, dated 2005)
